Data published in the supplement of paper PMC10307832.

Assays:
Experiment in all cases: relative viability (nuclei count vs DMSO), 5 days (fraction); higher = more cells survive
Selisistat + Pictilisib = compound: C1CC(C2=C(C1)C3=C(N2)C=CC(=C3)Cl)C(=O)N [Selisistat] + CS(=O)(=O)N1CCN(Cc2cc3nc(-c4cccc5[nH]ncc45)nc(N4CCOCC4)c3s2)CC1 [Pictilisib] (partner 1 µM)
How it was run: (§1)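 Lung cancer cell lines, seeded in 1536-well plates, were treated the following day by pin tool with a single drug or with five library-drug doses (not always all listed) in √10 steps on top of a fixed anchor-drug dose. Cells were fixed and nuclei stained in one step after 5 days, and nuclei were counted. Relative viability is the nuclei count for treated wells divided by that for vehicle wells, reported as medians of duplicate plates.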

Selisistat + Foretinib = compound: C1CC(C2=C(C1)C3=C(N2)C=CC(=C3)Cl)C(=O)N [Selisistat] + COc1cc2c(Oc3ccc(NC(=O)C4(C(=O)Nc5ccc(F)cc5)CC4)cc3F)ccnc2cc1OCCCN1CCOCC1 [Foretinib] (partner 0.25 µM)
How it was run: as §1

Serdemetan + Tozasertib = compound: c1ccc2c(CCNc3ccc(Nc4ccncc4)cc3)c[nH]c2c1 [Serdemetan] + Cc1cc(Nc2cc(N3CCN(C)CC3)nc(Sc3ccc(NC(=O)C4CC4)cc3)n2)n[nH]1 [Tozasertib] (partner 0.1 µM)
How it was run: as §1

Serdemetan + Olaparib = compound: c1ccc2c(CCNc3ccc(Nc4ccncc4)cc3)c[nH]c2c1 [Serdemetan] + O=C(c1cc(Cc2n[nH]c(=O)c3ccccc23)ccc1F)N1CCN(C(=O)C2CC2)CC1 [Olaparib] (partner 8 µM)
How it was run: as §1

Cell Line	relative viability (Selisistat + Pictilisib; first compound 0.4 µM)	relative viability (Selisistat + Pictilisib; first compound 1.265 µM)	relative viability (Selisistat + Pictilisib; first compound 4 µM)	relative viability (Selisistat + Pictilisib; first compound 12.65 µM)	relative viability (Selisistat + Pictilisib; first compound 40 µM)	relative viability (Selisistat + Foretinib; first compound 0.4 µM)	relative viability (Selisistat + Foretinib; first compound 1.265 µM)	relative viability (Selisistat + Foretinib; first compound 4 µM)	relative viability (Selisistat + Foretinib; first compound 12.65 µM)	relative viability (Selisistat + Foretinib; first compound 40 µM)	relative viability (Serdemetan + Tozasertib; first compound 0.04 µM)	relative viability (Serdemetan + Tozasertib; first compound 0.1265 µM)	relative viability (Serdemetan + Tozasertib; first compound 0.4 µM)	relative viability (Serdemetan + Tozasertib; first compound 1.265 µM)	relative viability (Serdemetan + Tozasertib; first compound 4 µM)	relative viability (Serdemetan + Olaparib; first compound 0.04 µM)	relative viability (Serdemetan + Olaparib; first compound 0.1265 µM)	relative viability (Serdemetan + Olaparib; first compound 0.4 µM)	relative viability (Serdemetan + Olaparib; first compound 1.265 µM)	relative viability (Serdemetan + Olaparib; first compound 4 µM)
COR-L23	0.821	0.78	0.899	0.701	0.689	1.08	0.981	1.04	1.03	0.996	0.236	0.201	0.224	0.174	0.165	0.316	0.324	0.386	0.313	0.289
HCC-78	0.253	0.229	0.172	0.196	0.181	0.497	0.567	0.414	0.562	0.592	0.414	0.354	0.363	0.329	0.303	0.847	0.731	0.749	0.79	0.592
NCI-H727	0.354	0.435	–	–	0.423	0.883	1.05	–	1.04	0.872	0.695	0.542	0.509	0.585	0.518	0.598	0.725	0.679	0.484	0.726
NCI-H2087	0.977	0.911	0.321	0.873	0.841	1.09	1.12	–	1.01	1.05	0.282	0.237	0.308	0.202	0.2	0.481	0.473	0.433	0.207	0.217
BEN	0.581	0.578	0.459	0.548	0.521	0.575	0.553	0.373	0.558	0.468	0.451	0.477	0.531	0.478	0.469	0.975	0.98	1.15	0.81	0.594
LCLC-103H	0.662	0.629	0.464	0.508	0.666	0.691	0.851	0.748	0.683	0.805	0.611	0.605	0.502	0.448	0.402	0.742	0.727	0.661	0.593	0.728
EKVX	0.451	0.432	0.39	0.442	0.53	0.808	0.83	0.595	0.866	0.867	0.424	0.426	0.327	–	0.29	0.852	0.851	–	–	0.66
LXF-289	0.845	0.812	0.633	0.747	0.85	1.03	1.02	0.868	0.947	0.997	0.213	0.21	0.171	0.164	0.118	1.1	1.11	0.939	0.794	0.388
ABC-1	0.782	0.895	0.728	0.758	0.773	0.927	1.04	0.929	1.08	1.16	0.132	0.171	0.182	0.177	0.162	0.627	0.689	0.982	0.702	0.573
NCI-H650	0.746	–	1.11	0.594	0.807	1.02	1.03	1.24	0.98	0.992	0.661	0.679	0.803	0.642	0.581	0.379	0.362	0.365	0.271	0.285
NCI-H1650	0.692	0.59	0.516	0.589	0.548	1.11	1.03	1.02	0.999	1.18	0.415	0.483	0.405	0.389	0.351	0.692	0.781	0.802	0.671	0.419
NCI-H2085	0.524	0.406	0.454	0.575	0.467	0.971	0.98	0.873	0.881	0.884	0.813	0.797	0.77	0.708	0.574	0.818	0.676	0.597	0.44	0.393
NCI-H1793	0.311	0.275	–	0.287	0.516	0.386	0.681	–	0.724	0.528	0.332	0.298	0.268	0.255	0.186	0.814	0.73	0.547	0.316	0.285
LC-2-ad	0.538	0.424	0.333	0.426	0.565	1.14	–	0.706	0.918	0.889	0.397	0.487	0.459	0.461	0.385	0.703	0.629	0.63	0.536	0.511
COR-L 105	0.432	0.412	0.322	0.405	0.418	0.984	1.15	–	1.1	1.14	0.313	0.336	0.357	0.405	0.366	0.774	0.677	0.542	0.603	0.565
NCI-H1355	0.406	0.427	–	0.5	0.514	0.933	0.991	0.955	0.99	0.993	0.489	0.508	0.443	0.381	0.385	0.672	0.709	0.648	0.471	0.566
H3255	0.508	0.41	0.481	0.494	0.532	0.863	0.9	0.837	0.84	0.767	0.678	0.693	0.629	0.626	0.556	0.559	0.529	0.527	0.508	0.566

Cell Line	relative viability (Selisistat + Pictilisib; first compound 0.4 µM)	relative viability (Selisistat + Pictilisib; first compound 1.265 µM)	relative viability (Selisistat + Pictilisib; first compound 4 µM)	relative viability (Selisistat + Pictilisib; first compound 12.65 µM)	relative viability (Selisistat + Pictilisib; first compound 40 µM)	relative viability (Selisistat + Foretinib; first compound 0.4 µM)	relative viability (Selisistat + Foretinib; first compound 1.265 µM)	relative viability (Selisistat + Foretinib; first compound 4 µM)	relative viability (Selisistat + Foretinib; first compound 12.65 µM)	relative viability (Selisistat + Foretinib; first compound 40 µM)	relative viability (Serdemetan + Tozasertib; first compound 0.04 µM)	relative viability (Serdemetan + Tozasertib; first compound 0.1265 µM)	relative viability (Serdemetan + Tozasertib; first compound 0.4 µM)	relative viability (Serdemetan + Tozasertib; first compound 1.265 µM)	relative viability (Serdemetan + Tozasertib; first compound 4 µM)	relative viability (Serdemetan + Olaparib; first compound 0.04 µM)	relative viability (Serdemetan + Olaparib; first compound 0.1265 µM)	relative viability (Serdemetan + Olaparib; first compound 0.4 µM)	relative viability (Serdemetan + Olaparib; first compound 1.265 µM)	relative viability (Serdemetan + Olaparib; first compound 4 µM)
NCI-H1993	0.702	0.81	–	0.828	0.854	0.745	0.798	0.696	0.949	0.707	0.578	0.579	0.592	0.568	0.562	0.982	0.969	1.18	1.01	0.778
NCI-H1734	0.479	0.488	0.404	0.486	0.445	0.956	0.822	0.868	0.889	0.815	0.29	0.235	0.209	0.142	0.134	0.327	0.183	0.171	0.114	0.149
HOP-62	0.865	0.651	0.449	0.619	0.935	1.09	1.19	1.17	0.97	1.12	0.421	0.323	0.322	0.328	0.245	0.482	0.394	0.489	–	0.263
LOU-NH91	0.538	0.496	0.485	0.532	0.512	1.01	0.938	0.872	0.928	0.896	0.692	0.654	0.442	0.509	0.684	0.897	0.889	–	–	0.877
ChaGo-K-1	0.804	0.844	–	0.675	0.646	0.927	0.896	0.922	0.857	0.843	0.231	0.232	0.2	0.178	0.167	0.401	0.269	0.258	0.168	0.257
NCI-H2228	0.476	0.398	0.343	0.551	0.557	0.979	0.931	0.685	0.843	0.916	0.267	0.246	0.371	0.128	0.162	0.493	0.458	0.358	0.301	0.264
PC-14	0.699	0.66	0.729	0.664	0.824	0.946	0.982	0.826	0.908	0.946	0.522	0.595	–	0.548	0.428	0.307	0.261	–	0.204	0.167
NCI-H1437	0.48	0.439	0.202	0.503	0.455	1.29	1.21	1.33	1.06	1	0.375	0.399	0.383	0.331	0.285	0.661	0.612	0.62	0.677	0.537
NCI-H460	0.439	0.282	0.164	0.317	0.33	1.01	0.969	0.967	1.01	1.05	0.647	0.403	0.399	0.402	0.12	0.342	0.344	0.349	0.182	0.148
NCI-H1666	0.421	0.401	0.312	0.423	0.318	0.993	0.993	0.927	0.943	0.858	0.569	0.588	0.588	0.553	0.547	0.735	0.701	0.668	–	0.678
NCI-H1651	0.595	0.596	0.48	0.553	0.516	0.785	0.693	0.864	0.897	0.739	0.696	0.613	0.338	0.343	0.292	0.179	0.165	0.159	0.131	0.141
NCI-H1755	0.439	0.414	0.363	0.451	0.443	0.985	1.04	0.948	0.923	0.977	0.568	0.625	0.55	0.435	0.354	0.867	0.769	0.648	0.493	0.448
NCI-H661	0.476	0.478	0.343	0.348	0.38	1.06	1.04	0.977	0.936	0.876	0.362	0.381	0.385	0.308	0.352	0.711	0.648	0.634	0.549	0.558
HARA	0.492	0.366	0.348	0.307	0.401	0.865	0.905	0.773	0.839	0.512	0.0876	0.0858	0.0868	0.0805	0.0776	0.875	0.892	0.674	0.476	0.362
NCI-H596	0.372	0.411	0.391	0.434	0.434	1.09	0.693	0.846	0.89	0.585	0.825	0.787	0.774	0.513	0.34	0.694	0.657	0.517	0.532	0.475
NCI-H23	0.562	0.462	–	0.567	0.51	0.579	0.779	0.805	0.935	0.565	0.436	0.413	0.358	0.305	0.265	0.314	0.364	0.298	–	0.231
